This is an account of results in patent publication US20050154537A1, “Methods, program products, and systems for single and multi-agent dosing and other related methods” (priority 2003, published 2005).

This data set relates to Hemoglobin (Hgb). Briefly: Lookup table: marker validity (nadir) window, Hemoglobin (Hgb). Type of data set: in vivo. The following applies: days elapsed between current dose and marker. The text has this: A lookup table has been constructed (see above example), in the form of a table, to represent the relationship of each trial Agent and its qualified Clinical Markers. This table includes information regarding the Maximum Dose and the Inverse Marker Applicability for each Agent. The gray cells on the Cycle Dose Modifier indicate these values.
The table also includes information regarding the nadir of applicability for each Agent—Marker combination. The range, in days and indicated as the Lower Limit and Upper limit, has been determined by calculating a percentage (20%) above and below the true nadir value when only a single value is known. Otherwise, the upper and lower nadir values are used. […] The values of Upper and Lower limits is shown as a property of the Association between Markers and Agents. The Relevancy of a Marker can be computed using the lookup table by comparing the number of days elapsed between the date of the application of the current dose and the date on which the Marker was taken to the upper and lower values for that Agent Marker Association. If the elapsed days are greater than or equal to the lower limit and less than or equal to the upper limit, then the calculations provided by the Cycle Dose Modifier are said to be relevant and thereby applicable as indicated in the yellow Marker Validity cell. The Relevancy of Cycle Dose Modifier Calculations for Agent 1 is based on the Validity of Marker for Agent 1 calculated by: =IF(and((($B13−B6)>=VLOOKUP(B$3,Validity!$A$3:$K$8,10)),((B$13−B6)<=VLOOKUP(B$3,Validity!$A$3:$K$8,11))),“valid”,“invalid”)

Consider `CC(=O)O[C@H]1C(=O)[C@@]2(C)[C@H]([C@H](OC(=O)c3ccccc3)[C@]3(O)C[C@H](OC(=O)[C@H](O)[C@@H](NC(=O)c4ccccc4)c4ccccc4)C(C)=C1C3(C)C)[C@]1(OC(C)=O)CO[C@@H]1C[C@@H]2O` [Taxol], for which the “Hemoglobin (Hgb) LL” value (lower limit of nadir range) was 8 days. In addition, the “Hemoglobin (Hgb) UL” value (upper limit of nadir range) turned out to be 11 days.
